% of control data for seven molecules are collected here from ChEMBL document CHEMBL5465560, “Selectivity Literature for EUbOPEN Chemogenomic Library” (2024).

In assay [1] the target is [Pyruvate dehydrogenase (acetyl-transferring)] kinase isozyme 1, mitochondrial (Homo sapiens, UniProt Q15118). Briefly: Selectivity interaction (Kinase panel (Z-LYTE Assay)) EUB0001632a PDK1. The conditions noted are these: at 10 µM.
Assay [2] addresses Mitogen-activated protein kinase 8 (Homo sapiens, UniProt P45983). Kind of assay: Selectivity interaction (KinomeScan (DiscoverX)) EUB0000666a MAPK8. The conditions noted are these: at 10 µM.
Assay [3] concerns the target T1, Rhodopsin kinase GRK1 (Homo sapiens) (UniProt Q15835).
T1 sequence (whole entry): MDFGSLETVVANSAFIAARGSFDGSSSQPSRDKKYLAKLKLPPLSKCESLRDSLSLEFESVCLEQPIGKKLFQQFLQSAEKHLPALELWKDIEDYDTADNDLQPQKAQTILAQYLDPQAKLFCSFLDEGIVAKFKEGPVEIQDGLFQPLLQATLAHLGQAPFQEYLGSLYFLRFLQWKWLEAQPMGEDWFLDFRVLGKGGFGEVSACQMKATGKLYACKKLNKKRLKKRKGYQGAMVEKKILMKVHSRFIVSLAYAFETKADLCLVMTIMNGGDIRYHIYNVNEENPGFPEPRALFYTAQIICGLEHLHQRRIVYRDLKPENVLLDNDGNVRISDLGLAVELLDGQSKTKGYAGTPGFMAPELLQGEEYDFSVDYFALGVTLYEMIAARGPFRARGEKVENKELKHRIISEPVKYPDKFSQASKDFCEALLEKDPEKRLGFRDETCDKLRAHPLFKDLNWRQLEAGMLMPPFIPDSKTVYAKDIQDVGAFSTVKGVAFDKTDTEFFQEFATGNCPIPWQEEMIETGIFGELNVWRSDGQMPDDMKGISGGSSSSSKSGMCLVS
Briefly: Selectivity interaction (KinomeScan (DiscoverX)) EUB0000607a GRK1. The conditions noted are these: at 10 µM.

In assay [4] the target is Serine/threonine-protein kinase PLK2 (Homo sapiens, UniProt Q9NYY3). Kind of assay: Selectivity interaction (KinomeScan (DiscoverX)) EUB0000607a PLK2. The conditions noted are these: at 10 µM.
Assay [5] has as its target LIM domain kinase 1 (Homo sapiens) (UniProt P53667). The following applies: at 10 µM.
Assay [6] addresses T2, 3-phosphoinositide-dependent protein kinase 1 (Homo sapiens) (UniProt O15530).
T2 sequence (whole entry): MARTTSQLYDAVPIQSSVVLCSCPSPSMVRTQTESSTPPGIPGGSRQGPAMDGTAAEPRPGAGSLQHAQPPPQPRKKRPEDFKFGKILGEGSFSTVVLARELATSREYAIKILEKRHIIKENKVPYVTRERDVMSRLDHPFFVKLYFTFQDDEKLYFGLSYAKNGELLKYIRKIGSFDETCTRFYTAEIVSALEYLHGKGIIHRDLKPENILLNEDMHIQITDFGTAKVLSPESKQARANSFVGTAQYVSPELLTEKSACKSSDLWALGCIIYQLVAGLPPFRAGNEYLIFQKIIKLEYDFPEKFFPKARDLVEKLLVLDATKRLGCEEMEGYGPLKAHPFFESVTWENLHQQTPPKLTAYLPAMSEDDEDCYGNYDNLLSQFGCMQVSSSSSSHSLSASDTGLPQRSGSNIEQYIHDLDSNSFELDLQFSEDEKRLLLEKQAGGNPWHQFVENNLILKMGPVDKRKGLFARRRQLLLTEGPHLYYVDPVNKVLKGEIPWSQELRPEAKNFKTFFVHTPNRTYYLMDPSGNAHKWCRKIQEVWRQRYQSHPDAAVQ
Briefly: Selectivity interaction (Ambit KINOMEscan and KiNATiv profiling in Jurkat cells) EUB0000090b PDPK1. The class given is cell-based. The following applies: at 1 µM.

Another assay has as its target Misshapen-like kinase 1 (Homo sapiens, UniProt Q8N4C8). Kind of assay: Selectivity interaction (Ambit KINOMEscan and KiNATiv profiling in Jurkat cells) EUB0000090b MINK1. The class given is cell-based. The conditions noted are these: at 1 µM.
Assay [7] concerns the target T3, Serine/threonine-protein kinase STK11 (Homo sapiens) (UniProt Q15831).
T3 sequence (whole entry): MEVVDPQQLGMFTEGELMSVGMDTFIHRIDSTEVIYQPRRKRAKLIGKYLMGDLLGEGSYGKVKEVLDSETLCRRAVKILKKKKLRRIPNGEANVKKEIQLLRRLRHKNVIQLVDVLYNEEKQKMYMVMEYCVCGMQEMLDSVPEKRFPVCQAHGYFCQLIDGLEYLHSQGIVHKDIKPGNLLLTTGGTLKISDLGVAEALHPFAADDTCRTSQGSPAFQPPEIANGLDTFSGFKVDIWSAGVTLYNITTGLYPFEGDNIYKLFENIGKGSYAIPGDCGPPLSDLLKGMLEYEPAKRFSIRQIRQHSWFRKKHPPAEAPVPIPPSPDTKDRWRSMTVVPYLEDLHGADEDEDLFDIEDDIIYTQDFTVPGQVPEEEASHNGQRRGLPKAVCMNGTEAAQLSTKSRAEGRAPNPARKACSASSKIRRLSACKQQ
Kind of assay: Selectivity interaction (KinomeScan (DiscoverX)) EUB0001049a STK11. The conditions noted are these: at 1 µM.

In assay [8] the target is T4, Peripheral plasma membrane protein CASK (Homo sapiens) (UniProt O14936).
T4 sequence (whole entry): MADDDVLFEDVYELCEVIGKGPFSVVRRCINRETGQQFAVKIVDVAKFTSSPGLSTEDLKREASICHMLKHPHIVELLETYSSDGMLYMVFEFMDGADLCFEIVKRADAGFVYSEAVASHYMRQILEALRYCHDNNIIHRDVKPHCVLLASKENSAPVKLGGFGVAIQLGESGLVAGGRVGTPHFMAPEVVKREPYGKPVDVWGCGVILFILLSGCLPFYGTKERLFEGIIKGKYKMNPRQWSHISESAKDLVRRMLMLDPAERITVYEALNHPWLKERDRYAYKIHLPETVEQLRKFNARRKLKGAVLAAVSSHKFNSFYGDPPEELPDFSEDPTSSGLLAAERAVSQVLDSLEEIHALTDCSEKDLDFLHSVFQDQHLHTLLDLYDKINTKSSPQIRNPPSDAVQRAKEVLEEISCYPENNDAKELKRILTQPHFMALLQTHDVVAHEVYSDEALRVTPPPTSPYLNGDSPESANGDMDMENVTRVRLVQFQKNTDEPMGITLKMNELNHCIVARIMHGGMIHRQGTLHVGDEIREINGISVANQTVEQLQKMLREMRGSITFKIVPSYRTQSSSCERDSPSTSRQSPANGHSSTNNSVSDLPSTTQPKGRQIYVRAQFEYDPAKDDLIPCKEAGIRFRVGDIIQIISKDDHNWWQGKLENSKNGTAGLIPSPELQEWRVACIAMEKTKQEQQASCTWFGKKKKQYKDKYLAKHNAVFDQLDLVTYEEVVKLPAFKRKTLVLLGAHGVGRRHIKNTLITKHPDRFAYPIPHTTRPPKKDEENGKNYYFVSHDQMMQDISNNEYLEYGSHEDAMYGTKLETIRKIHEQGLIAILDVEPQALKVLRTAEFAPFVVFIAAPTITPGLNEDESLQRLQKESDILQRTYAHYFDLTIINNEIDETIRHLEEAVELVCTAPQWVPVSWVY
Kind of assay: Selectivity interaction (KinomeScan (DiscoverX)) EUB0001079a CASK. The following applies: at 1 µM.

Serine/threonine-protein kinase PLK2, sequence (Q9NYY3 whole entry, looked up, the tested form may be a part): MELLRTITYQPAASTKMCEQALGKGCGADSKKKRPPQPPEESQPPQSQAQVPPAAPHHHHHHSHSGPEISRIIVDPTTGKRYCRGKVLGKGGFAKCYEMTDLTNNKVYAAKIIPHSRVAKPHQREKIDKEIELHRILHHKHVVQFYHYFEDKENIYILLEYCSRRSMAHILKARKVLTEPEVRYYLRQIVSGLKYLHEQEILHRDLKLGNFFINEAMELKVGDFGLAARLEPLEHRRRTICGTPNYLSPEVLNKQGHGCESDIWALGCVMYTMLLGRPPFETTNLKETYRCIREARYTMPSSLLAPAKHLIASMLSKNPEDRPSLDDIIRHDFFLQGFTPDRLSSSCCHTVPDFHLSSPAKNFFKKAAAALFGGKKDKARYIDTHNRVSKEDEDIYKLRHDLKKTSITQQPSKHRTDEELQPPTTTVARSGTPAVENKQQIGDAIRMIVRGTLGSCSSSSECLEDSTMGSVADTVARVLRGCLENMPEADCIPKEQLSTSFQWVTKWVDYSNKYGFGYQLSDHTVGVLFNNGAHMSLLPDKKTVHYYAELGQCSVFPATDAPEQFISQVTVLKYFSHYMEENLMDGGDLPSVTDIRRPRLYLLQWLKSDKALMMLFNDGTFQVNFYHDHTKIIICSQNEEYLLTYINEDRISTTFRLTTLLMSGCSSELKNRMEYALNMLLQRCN
Mitogen-activated protein kinase 8, sequence (P45983 whole entry): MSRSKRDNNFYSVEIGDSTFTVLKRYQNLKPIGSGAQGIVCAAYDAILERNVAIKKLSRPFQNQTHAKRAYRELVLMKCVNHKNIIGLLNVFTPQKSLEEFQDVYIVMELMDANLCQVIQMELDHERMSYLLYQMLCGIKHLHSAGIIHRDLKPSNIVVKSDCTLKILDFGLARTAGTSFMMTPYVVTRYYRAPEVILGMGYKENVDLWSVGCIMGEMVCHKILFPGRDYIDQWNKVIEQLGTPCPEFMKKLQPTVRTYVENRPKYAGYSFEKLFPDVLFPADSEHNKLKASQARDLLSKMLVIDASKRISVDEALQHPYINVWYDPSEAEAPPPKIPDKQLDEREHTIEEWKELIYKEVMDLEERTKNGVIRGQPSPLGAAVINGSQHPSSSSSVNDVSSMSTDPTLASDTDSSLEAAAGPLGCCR
LIM domain kinase 1 (Homo sapiens), sequence (P53667 whole entry, looked up, the tested form may be a part): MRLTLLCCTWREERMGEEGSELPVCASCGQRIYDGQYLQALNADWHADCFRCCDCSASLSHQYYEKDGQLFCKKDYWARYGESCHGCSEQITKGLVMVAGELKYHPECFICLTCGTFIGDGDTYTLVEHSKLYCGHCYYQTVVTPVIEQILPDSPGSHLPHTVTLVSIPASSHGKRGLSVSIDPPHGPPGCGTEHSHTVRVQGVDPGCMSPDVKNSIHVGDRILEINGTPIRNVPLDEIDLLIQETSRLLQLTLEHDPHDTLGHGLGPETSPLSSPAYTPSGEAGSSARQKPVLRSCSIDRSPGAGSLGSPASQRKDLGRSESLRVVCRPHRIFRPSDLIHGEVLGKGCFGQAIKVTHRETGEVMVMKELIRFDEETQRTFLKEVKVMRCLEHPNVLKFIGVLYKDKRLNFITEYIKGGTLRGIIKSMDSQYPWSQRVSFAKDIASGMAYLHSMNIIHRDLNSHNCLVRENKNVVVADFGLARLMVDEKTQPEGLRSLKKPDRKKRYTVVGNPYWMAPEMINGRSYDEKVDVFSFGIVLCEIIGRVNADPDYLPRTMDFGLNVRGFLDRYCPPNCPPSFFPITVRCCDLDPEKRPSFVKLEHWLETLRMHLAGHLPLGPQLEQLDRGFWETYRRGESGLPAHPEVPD
Misshapen-like kinase 1, sequence (Q8N4C8 whole entry, looked up): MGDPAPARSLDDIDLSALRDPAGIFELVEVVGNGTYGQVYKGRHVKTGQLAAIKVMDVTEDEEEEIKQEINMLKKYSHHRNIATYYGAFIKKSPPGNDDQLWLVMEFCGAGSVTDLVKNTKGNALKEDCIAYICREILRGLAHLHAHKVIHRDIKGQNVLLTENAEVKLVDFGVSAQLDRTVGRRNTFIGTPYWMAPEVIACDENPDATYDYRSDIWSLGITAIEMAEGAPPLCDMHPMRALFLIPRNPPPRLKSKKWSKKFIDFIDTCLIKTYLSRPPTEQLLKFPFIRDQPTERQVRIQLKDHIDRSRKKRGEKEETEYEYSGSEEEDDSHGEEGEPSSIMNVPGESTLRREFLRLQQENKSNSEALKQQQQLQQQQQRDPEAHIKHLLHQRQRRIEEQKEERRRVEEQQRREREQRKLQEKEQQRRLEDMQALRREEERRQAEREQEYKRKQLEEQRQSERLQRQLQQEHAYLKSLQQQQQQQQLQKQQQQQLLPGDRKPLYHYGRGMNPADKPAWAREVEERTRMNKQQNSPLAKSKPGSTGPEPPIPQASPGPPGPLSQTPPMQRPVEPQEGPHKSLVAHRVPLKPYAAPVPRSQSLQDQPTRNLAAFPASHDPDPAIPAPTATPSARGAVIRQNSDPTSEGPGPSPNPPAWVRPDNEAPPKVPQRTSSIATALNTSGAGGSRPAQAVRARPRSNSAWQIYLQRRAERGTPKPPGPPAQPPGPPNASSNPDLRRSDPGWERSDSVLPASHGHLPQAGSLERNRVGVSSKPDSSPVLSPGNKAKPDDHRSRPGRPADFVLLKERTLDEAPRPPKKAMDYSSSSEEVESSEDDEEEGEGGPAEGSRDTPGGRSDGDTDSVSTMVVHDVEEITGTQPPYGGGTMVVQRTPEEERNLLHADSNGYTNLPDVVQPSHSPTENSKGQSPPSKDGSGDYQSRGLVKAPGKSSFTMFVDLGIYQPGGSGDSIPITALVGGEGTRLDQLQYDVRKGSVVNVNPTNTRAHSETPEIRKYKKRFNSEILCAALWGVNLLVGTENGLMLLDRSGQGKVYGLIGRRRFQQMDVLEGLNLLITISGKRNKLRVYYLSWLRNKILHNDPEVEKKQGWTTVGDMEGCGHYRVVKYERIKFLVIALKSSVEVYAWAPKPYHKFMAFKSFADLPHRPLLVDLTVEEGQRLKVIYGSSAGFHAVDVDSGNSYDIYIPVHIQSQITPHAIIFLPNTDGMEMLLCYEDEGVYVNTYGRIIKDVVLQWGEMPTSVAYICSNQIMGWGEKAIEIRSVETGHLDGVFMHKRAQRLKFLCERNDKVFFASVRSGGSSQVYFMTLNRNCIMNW

As to `Cn1cc(-n2cnc3c(NCc4nc5cc(Cl)c(Cl)cc5[nH]4)nc(N4CCOCC4)nc32)cn1`, in assay [1], the % of control is -4.24%.

Regarding `O=C(NOC[C@H](O)CO)c1ccc(F)c(F)c1Nc1ccc(I)cc1F`, the % of control in [2] worked out at 92%.

In the case of `CNC(=O)Nc1ccc(-c2nc(N3CC4CCC(C3)O4)c3cnn(C4CCC5(CC4)OCCO5)c3n2)cc1`, the % of control in assay [3] and in assay [4] was 100% throughout.

On to `Cc1cc([C@@H](C)Nc2ccccc2C(=O)O)c2nc(N3CCOCC3)cc(=O)n2c1` [AZD-6482], for which the % of control in assay [5] was determined as 100%.

Consider `CN(C)C/C=C/C(=O)Nc1ccc(C(=O)N2CCCC(Nc3ncc(Cl)c(-c4c[nH]c5ccccc45)n3)C2)cc1` (centres undefined), for which the % of control in assay [6] was 99%; at Misshapen-like kinase 1, 89%.

As to `COc1cc(Nc2nc(C)cc(-c3cnn4nc(OC)ccc34)n2)cc(C(F)(F)F)c1`, the % of control in assay [7] amounted to 100%.

As to `Nc1cnc(N2CCc3cc(S(=O)(=O)Nc4c(F)cc(Cl)cc4F)cc(N4CCCC4=O)c32)nc1` [TP-020n], in [8], the % of control worked out at 94%.
